Legend:
JAK1 = target: T1, JAK1 (Homo sapiens, UniProt P23458); assay: JAK1 microfluidic kinase assay (Caliper EZ Reader II, FAM labeled peptide substrate); format: biochemical
T1 construct: purchased Carna Biosciences
Procedure, shortened: (§1)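 3-fold serial dilutions, top 5 μM, 1% DMSO final; 10 min preincubation with enzyme, RT. Buffer: 50 mM HEPES, 0.01% Brij35, 10 mM MgCl2, 2 mM DTT. Enzyme batch tuned to 10% peptide conversion. EDTA stop, mobility-shift readout, IC50 fit.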

JAK2 = target: T2, JAK2 (Homo sapiens, UniProt O60674); assay: JAK2 microfluidic kinase assay (Caliper EZ Reader II, FAM labeled peptide substrate); format: biochemical
T2 construct: purchased Carna Biosciences
T2 sequence (O60674 whole entry): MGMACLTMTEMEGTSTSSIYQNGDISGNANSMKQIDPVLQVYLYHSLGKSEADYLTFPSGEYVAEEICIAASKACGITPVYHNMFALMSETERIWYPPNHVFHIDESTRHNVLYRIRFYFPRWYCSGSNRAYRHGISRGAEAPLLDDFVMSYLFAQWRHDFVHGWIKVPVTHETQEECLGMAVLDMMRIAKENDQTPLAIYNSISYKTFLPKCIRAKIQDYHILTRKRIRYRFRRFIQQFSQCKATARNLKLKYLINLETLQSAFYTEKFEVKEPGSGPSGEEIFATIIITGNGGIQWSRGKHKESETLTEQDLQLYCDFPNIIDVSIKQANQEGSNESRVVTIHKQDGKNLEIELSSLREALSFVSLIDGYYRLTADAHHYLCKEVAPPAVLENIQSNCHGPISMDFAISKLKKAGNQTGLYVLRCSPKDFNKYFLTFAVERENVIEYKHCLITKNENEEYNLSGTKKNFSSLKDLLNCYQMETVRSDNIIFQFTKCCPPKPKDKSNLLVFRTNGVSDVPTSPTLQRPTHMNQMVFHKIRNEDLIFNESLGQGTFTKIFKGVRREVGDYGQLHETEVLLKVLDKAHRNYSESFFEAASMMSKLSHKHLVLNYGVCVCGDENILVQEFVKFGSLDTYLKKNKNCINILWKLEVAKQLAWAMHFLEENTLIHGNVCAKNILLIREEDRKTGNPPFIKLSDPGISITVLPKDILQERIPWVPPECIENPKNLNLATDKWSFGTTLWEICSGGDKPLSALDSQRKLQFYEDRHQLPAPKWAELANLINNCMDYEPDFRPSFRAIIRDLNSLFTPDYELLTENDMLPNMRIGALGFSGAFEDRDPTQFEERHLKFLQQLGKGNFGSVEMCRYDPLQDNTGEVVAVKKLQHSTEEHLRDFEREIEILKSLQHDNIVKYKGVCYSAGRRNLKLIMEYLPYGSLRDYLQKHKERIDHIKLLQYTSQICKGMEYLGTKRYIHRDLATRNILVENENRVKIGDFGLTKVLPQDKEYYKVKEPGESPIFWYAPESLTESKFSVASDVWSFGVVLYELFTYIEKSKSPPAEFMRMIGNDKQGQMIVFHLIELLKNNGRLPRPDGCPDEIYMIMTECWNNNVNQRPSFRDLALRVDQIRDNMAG
Procedure, shortened: as §1

JAK2V617F = target: T3, JAK2V617F (Homo sapiens, UniProt O60674, V617F); assay: JAK2V617F microfluidic kinase assay (Caliper EZ Reader II, FAM labeled peptide substrate); format: biochemical; settings: JAK2V617F 2.5 nM, 1 mM ATP
T3 construct: purchased Carna Biosciences
T3 sequence (O60674 whole entry V617F): as the sequence (O60674 whole entry) above, with V617F counted along it
Procedure, shortened: as §1

[1] = Liver microsomes study, Phase I stability (RLM); format: in vitro ADME, rat; settings: pH 7.4; rat liver microsomes 0.5 mg/mL, 1 μM test article; read-out: RLM Clint
Protocol: (§2) Commercially available liver microsomes (MsLM vendor: XENOTECH; RLM, DLM, MkL, HLM vendor: Corning) were used for study the Phase I stability of test articles. […] The reaction was initiated by addition of 80 μL of the NADPH regenerating system to 320 µL of each incubation mixture per time point. […] The 0-minute samples were prepared by addition of an 80 μL aliquot of each incubation mixture to 400 μL quench reagent to precipitate proteins. And then a 20 μL aliquot of the NADPH regenerating system was added. At 10, 30, and 90 minutes, the reaction will be stopped by the addition of cold acetonitrile solution containing tolbutamide and propanolol served as internal standard. The samples taken at all time points were centrifuged at 4000×g for 15 minutes. 80 μL of supernatant are taken into 96-well assay plates pre-added with 160 μL ultrapure water, and then analyzed by LC/MS/MS(Shimadzu LC30AD & API4000/API5000)). Concentrations of test articles, control compounds in the samples were determined by using LC/MS/MS) method. Plotting of the chromatograms and peak area integrations are carried out by Analyst (AB Sciex).
(§3) In the determination of the in vitro elimination constant, ke, of the control compounds, the analyte/internal standard peak area ratios will be converted to percentage remaining (% Remaining) with the following equation: […]
(§4) The slope was measured by the natural logarithm of the percentage of the residual compound and time, T½ and CLint were calculated according to the following formulas, V/M was equal to the 1/concentration of protein.

[2] = Liver microsomes study, Phase I stability (HLM); format: in vitro ADME, human; settings: pH 7.4; human liver microsomes 0.5 mg/mL, 1 μM test article; read-out: HLM Clint
Protocol: as §2, §3, §4

[3] = Rat pharmacokinetic study (intravenous and oral); format: in vivo; settings: male, plasma, Sprague-Dawley rats, intravenous, 1 mg/kg, solution
Protocol: Pharmacokinetic profile of test articles in rodent were evaluated in fasted male ICR mouse and Sprague-Dawley rats. […] Typically, mice were dosed with 2 mg/kg and 10 mg/kg by intravenous injection and oral gavage, respectively. Rats were dosed with 1 mg/kg and 5 mg/kg by intravenous injection and oral gavage, respectively. Beagle dogs were dosed with 1 mg/kg and 5 mg/kg by intravenous injection and oral gavage, respectively. After dosing, blood samples were collected at each time point. For IV injection group, time points were set at 5, 15, 30 min, and then 1, 2, 4, 8 and 24 hours after dosing. For oral gavage group, timepoints were set at 15, 30 m, and then 1, 2, 4, 8, and 24 hours. Blood was collected into appropriately labeled tubes containing K2EDTA as the anticoagulant. Plasma was obtained within 1 hours of blood collection by centrifugation at 8000×g and 4° C. for 6 minutes, and then stored at −20° C. until analyzed by LCMS/MS for quantification.

TYK2 = target: T4, TYK2 (Homo sapiens, UniProt P29597); assay: TYK2 microfluidic kinase assay (Caliper EZ Reader II, FAM labeled peptide substrate); format: biochemical
T4 construct: purchased Carna Biosciences
T4 sequence (P29597 whole entry): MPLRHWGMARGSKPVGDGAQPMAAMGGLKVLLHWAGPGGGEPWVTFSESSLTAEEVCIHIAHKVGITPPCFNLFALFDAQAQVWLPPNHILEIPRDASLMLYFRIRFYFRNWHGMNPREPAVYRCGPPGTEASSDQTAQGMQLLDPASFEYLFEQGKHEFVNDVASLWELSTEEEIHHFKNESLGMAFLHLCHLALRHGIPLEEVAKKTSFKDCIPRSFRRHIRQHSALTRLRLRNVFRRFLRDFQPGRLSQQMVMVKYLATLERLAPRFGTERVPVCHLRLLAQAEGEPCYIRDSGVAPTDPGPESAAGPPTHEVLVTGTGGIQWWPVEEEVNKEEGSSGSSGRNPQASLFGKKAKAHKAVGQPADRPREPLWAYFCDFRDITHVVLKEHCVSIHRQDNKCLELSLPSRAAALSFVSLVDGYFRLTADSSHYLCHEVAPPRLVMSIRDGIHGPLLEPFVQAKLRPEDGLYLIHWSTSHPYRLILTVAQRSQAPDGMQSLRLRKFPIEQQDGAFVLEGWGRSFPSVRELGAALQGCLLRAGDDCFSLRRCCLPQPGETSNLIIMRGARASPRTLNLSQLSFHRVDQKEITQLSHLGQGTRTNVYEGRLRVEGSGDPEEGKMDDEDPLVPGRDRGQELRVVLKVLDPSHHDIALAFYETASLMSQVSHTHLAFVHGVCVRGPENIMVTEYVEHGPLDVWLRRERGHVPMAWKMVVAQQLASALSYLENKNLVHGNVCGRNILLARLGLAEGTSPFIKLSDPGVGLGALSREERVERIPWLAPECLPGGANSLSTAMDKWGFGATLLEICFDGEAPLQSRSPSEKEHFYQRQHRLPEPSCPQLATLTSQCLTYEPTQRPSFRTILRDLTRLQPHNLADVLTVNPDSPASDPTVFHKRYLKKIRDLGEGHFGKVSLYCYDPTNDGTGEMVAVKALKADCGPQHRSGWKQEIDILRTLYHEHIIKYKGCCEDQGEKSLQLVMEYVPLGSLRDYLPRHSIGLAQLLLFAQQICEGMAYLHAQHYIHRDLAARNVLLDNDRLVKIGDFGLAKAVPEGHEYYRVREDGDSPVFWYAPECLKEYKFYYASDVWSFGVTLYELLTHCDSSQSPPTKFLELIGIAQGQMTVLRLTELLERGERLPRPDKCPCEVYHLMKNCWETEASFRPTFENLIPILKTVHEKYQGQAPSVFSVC
Procedure, shortened: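 Human JAK enzymes in 50 mM HEPES, 0.01% Brij35, 10 mM MgCl2, 2 mM DTT, tuned to 10% conversion of FAM-peptide; compounds (3-fold dilutions, top 5 μM, 1% DMSO) pre-incubated 10 min. Reaction times: JAK1 120 min, JAK2 20 min, JAK2V617F 30 min, TYK2 10 min; EDTA stop, microfluidic conversion read, IC50 from % inhibition curves.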

[4] = IC50 JAK1 (5 nM) (1 m MATP), JAK1 5 nM, 1 mM ATP
[5] = IC50 JAK2 ([…]) (1 mM ATP), 1 mM ATP
[6] = IC50 JAK2 ([…]) (Km ATP), Km ATP
[7] = IC50 TYK2 (10 nM) (Km ATP), TYK2 10 nM, Km ATP
[8] = IC50 TYK2 ([…]) (1 mM ATP), TYK2 […], 1 mM ATP

T1 sequence (P23458 whole entry): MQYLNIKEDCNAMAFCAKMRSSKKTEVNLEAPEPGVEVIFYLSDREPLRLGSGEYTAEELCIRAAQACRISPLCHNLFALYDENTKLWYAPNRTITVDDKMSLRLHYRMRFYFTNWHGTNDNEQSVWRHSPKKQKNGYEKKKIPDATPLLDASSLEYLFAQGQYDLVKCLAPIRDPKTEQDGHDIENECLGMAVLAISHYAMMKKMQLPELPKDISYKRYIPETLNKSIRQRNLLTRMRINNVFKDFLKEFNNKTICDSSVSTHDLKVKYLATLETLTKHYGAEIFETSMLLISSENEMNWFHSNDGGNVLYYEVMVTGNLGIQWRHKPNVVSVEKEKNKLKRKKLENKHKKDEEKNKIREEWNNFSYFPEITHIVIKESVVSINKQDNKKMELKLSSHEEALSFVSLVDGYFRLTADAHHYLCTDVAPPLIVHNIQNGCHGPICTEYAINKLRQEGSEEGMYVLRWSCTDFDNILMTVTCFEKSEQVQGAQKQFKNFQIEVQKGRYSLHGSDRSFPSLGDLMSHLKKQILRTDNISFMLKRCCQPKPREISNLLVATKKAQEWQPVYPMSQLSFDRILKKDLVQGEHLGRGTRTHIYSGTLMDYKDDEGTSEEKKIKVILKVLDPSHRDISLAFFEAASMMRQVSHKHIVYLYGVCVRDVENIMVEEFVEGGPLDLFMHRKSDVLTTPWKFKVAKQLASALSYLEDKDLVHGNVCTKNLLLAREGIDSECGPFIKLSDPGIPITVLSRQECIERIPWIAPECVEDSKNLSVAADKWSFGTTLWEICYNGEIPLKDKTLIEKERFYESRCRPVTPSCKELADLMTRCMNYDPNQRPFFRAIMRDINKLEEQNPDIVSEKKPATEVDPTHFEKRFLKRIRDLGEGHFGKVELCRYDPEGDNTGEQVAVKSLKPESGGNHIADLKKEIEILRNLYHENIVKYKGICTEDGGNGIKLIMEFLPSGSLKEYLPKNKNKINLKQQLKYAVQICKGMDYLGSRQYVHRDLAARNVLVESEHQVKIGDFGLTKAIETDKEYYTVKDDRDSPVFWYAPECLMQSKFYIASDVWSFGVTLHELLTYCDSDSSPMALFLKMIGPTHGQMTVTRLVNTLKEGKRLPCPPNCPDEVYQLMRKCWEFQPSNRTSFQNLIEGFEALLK

| Compound | IC50 (JAK1; [4]) | IC50 (JAK2; [5]) | IC50 (JAK2; [6]) | IC50 (JAK2V617F) | microsomal CLint at 1 μM [1] | microsomal CLint at 1 μM [2] | AUC [3] | Vd [3] | clearance [3] | half-life [3] | IC50 (JAK1; IC50 JAK1 (10 nM) (Km ATP), JAK1 10 nM, Km ATP) | IC50 (TYK2; [7]) | IC50 (TYK2; [8]) |
| --- | --- | --- | --- | --- | --- | --- | --- | --- | --- | --- | --- | --- | --- |
| Cc1cnc(Nc2cnn(C3CCN(C(=O)C4CC4)CC3)c2)nc1-c1ccc(C(=O)NCC#N)cc1 [Example 24, N-(Cyanomethyl)-4-(2-((1-(1-(cyclopropanecarbonyl)piperidin-4-yl)-1H-pyrazol-4-yl)amino)-5-methylpyrimidin-4-yl)benzamide] | 13.8 nM | < 0.25 nM | < 0.25 nM | 2.53 nM | 53.6 µL/min/mg | 52.8 µL/min/mg | 1970 ng·h/mL | 0.43 L/kg | 8.4 mL/min/kg | 37.8 min | – | – | – |
| Cc1cnc(Nc2cnn(C3CC3)c2)nc1-c1ccc(C(=O)NCC#N)cc1 [Example 25, N-(Cyanomethyl)-4-(2-((1-cyclopropyl-1H-pyrazol-4-yl)amino)-5-methylpyrimidin-4-yl)benzamide] | 11.2 nM | 20.9 nM | 0.69 nM | 47.5 nM | 263 µL/min/mg | 5.19 µL/min/mg | 607 ng·h/mL | 0.6 L/kg | 29.8 mL/min/kg | 12 min | 1.34 nM | – | – |
| Cc1cnc(Nc2cnn(C3CCOCC3)c2)nc1-c1ccc(C(=O)NCC2(C#N)CC2)cc1 [Example 37, N-((1-cyanocyclopropyl)methyl)-4-(5-methyl-2-((1-(tetrahydro-2H-pyran-4-yl)-1H-pyrazol-4-yl)amino)pyrimidin-4-yl)benzamide] | – | 50.5 nM | 0.54 nM | – | 40.7 µL/min/mg | 20.7 µL/min/mg | – | – | – | – | – | 28.8 nM | – |
| Cc1cnc(Nc2cnn(C3CCOCC3)c2)nc1-c1ccc(C(=O)NCC#N)cc1 [Example 26, N-(Cyanomethyl)-4-(5-methyl-2-((1-(tetrahydro-2H-pyran-4-yl)-1H-pyrazol-4-yl)amino)pyrimidin-4-yl)benzamide] | 14.1 nM | 1.03 nM | 0.33 nM | 31.1 nM | 17.1 µL/min/mg | 9.3 µL/min/mg | 1060 ng·h/mL | 0.6 L/kg | 15.8 mL/min/kg | 30 min | – | – | – |
| CC[C@@H](C#N)NC(=O)c1ccc(-c2nc(Nc3cnn(C4CC(C)(C)OC(C)(C)C4)c3)ncc2Cl)cc1 [Example 182, (S)-4-(5-Chloro-2-((1-(2,2,6,6-tetramethyltetrahydro-2H-pyran-4-yl)-1H-pyrazol-4-yl)amino)pyrimidin-4-yl)-N-(1-cyanopropyl)benzamide] | 8.65 nM | < 0.25 nM | – | – | 51.9 µL/min/mg | 180 µL/min/mg | – | – | – | – | – | – | 0.58 nM |
| Cc1cnc(Nc2cnn(C3CCN(C)CC3)c2)nc1-c1ccc(C(=O)N[C@H](C#N)C2CC2)cc1 [Example 180, (S)—N-(cyano(cyclopropyl)methyl)-4-(5-methyl-2-((1-(1-methylpiperidin-4-yl)-1H-pyrazol-4-yl)amino)pyrimidin-4-yl)benzamide] | 0.85 nM | 0.59 nM | – | – | 91.8 µL/min/mg | 23.1 µL/min/mg | – | – | – | – | – | – | 1.04 nM |
| Cc1cnc(Nc2cnn(C3CC3)c2)nc1-c1ccc(C(=O)NC2(C#N)CC2)cc1 [Example 160, N-(1-cyanocyclopropyl)-4-(2-((1-cyclopropyl-1H-pyrazol-4-yl)amino)-5-methylpyrimidin-4-yl)benzamide] | – | 70.4 nM | 0.73 nM | – | 110 µL/min/mg | 16.9 µL/min/mg | – | – | – | – | – | 17.2 nM | – |
| Cc1cnc(Nc2cnn(C)c2)nc1-c1ccc(C(=O)NCC2(C#N)CC2)cc1 [Example 12, N-((1-Cyanocyclopropyl)methyl)-4-(5-methyl-2-((1-methyl-1H-pyrazol-4-yl)amino)pyrimidin-4-yl)benzamide] | 37.5 nM | 95.5 nM | 3.2 nM | – | 132 µL/min/mg | 4.6 µL/min/mg | 624 ng·h/mL | 0.98 L/kg | 27.1 mL/min/kg | 26.4 min | – | – | – |
| Cc1cnc(Nc2cnn(CC(F)(F)F)c2)nc1-c1ccc(C(=O)NCC#N)cc1 [Example 28, N-(Cyanomethyl)-4-(5-methyl-2-((1-(2,2,2-trifluoroethyl)-1H-pyrazol-4-yl)amino)pyrimidin-4-yl)benzamide] | – | 82.2 nM | 2.73 nM | 193 nM | – | – | 732 ng·h/mL | 0.8 L/kg | 22.9 mL/min/kg | 24 min | – | – | – |
| Cc1cnc(Nc2cnn(C(C)C(F)(F)F)c2)nc1-c1ccc(C(=O)N[C@@H](C)C#N)cc1 (stereo partly drawn) [Example 166, N—((S)-1-Cyanoethyl)-4-(5-methyl-2-((1-(1,1,1-trifluoropropan-2-yl)-1H-pyrazol-4-yl)amino)pyrimidin-4-yl)benzamide] | 10.4 nM | 15.6 nM | – | – | 161 µL/min/mg | 7.27 µL/min/mg | – | – | – | – | – | – | 22.1 nM |
| C[C@H](C#N)NC(=O)c1ccc(-c2nc(Nc3cnn(C)c3)ncc2Cl)cc1 [Example 97, (R)-4-(5-Chloro-2-((1-methyl-1H-pyrazol-4-yl)amino)pyrimidin-4-yl)-N-(1-cyanoethyl)benzamide] | 11.3 nM | – | – | 147 nM | 16.9 µL/min/mg | 2.39 µL/min/mg | – | – | – | – | – | – | 218 nM |
| Cc1cnc(Nc2cnn(C3CCN(C(=O)C4CC4)CC3)c2)nc1-c1ccc(C(=O)N[C@@H](C)C#N)cc1 [Example 163, (S)—N-(1-cyanoethyl)-4-(2-((1-(1-(cyclopropanecarbonyl)piperidin-4-yl)-1H-pyrazol-4-yl)amino)-5-methylpyrimidin-4-yl)benzamide] | – | 0.69 nM | – | – | 54.9 µL/min/mg | 68.4 µL/min/mg | – | – | – | – | – | 12 nM | – |
| Cc1cnc(Nc2cnn(C)c2)nc1-c1ccc(C(=O)N[C@@H](C)C#N)cc1 [Example 18, (S)—N-(1-Cyanoethyl)-4-(5-methyl-2-((1-methyl-1H-pyrazol-4-yl)amino)pyrimidin-4-yl)benzamide] | 10 nM | – | 0.85 nM | 53 nM | 23.3 µL/min/mg | 11 µL/min/mg | 504 ng·h/mL | 1.4 L/kg | 33.1 mL/min/kg | 28.8 min | – | – | 49.6 nM |
| Cc1cnc(Nc2cnn(C3CCN(C)CC3)c2)nc1-c1ccc(C(=O)N[C@H](C#N)C(C)C)cc1 [Example 174, (S)—N-(1-cyano-2-methylpropyl)-4-(5-methyl-2-((1-(1-methylpiperidin-4-yl)-1H-pyrazol-4-yl)amino)pyrimidin-4-yl)benzamide] | 1.28 nM | 0.86 nM | – | – | 115 µL/min/mg | 45.7 µL/min/mg | – | – | – | – | – | – | 1.33 nM |
| Cc1cnc(Nc2cnn(C3C[C@@H](C)O[C@@H](C)C3)c2)nc1-c1ccc(C(=O)N[C@@H](C)C#N)cc1 (stereo partly drawn) [Example 73, N—((S)-1-cyanoethyl)-4-(2-((1-(cis-2,6-dimethyltetrahydro-2H-pyran-4-yl)-1H-pyrazol-4-yl)amino)-5-methylpyrimidin-4-yl)benzamide] | 34.4 nM | – | – | 8.15 nM | 259 µL/min/mg | 268 µL/min/mg | – | – | – | – | – | – | 74.4 nM |
